Assays:
[1] = in vivo; cited from earlier work
[2] = administered as a fodder additive; cited from earlier work
[3] = Quinoxaline-2-carboxylic acid (Carbadox metabolite) residue in pig muscle (ham, chop), liver and kidney after flumecinol treatment; assay type: in vivo, pigs
Method: Tests were carried out at a large-scale pig farm, where 25 mg/kg of body weight of Carbadox admixed with the fodder of the pigs were administered to pigs having a live weight of 40 kg. From a population fed with this fodder 27 animals, each weighing exactly 40 kg, were selected, by weighing them separately. The selected animals were railed off in a place suitable for further tests. From this time on (zero time) the animals were given the same fodder as before, except Carbadox.
The 27 animals were divided into three groups as follows:
Group I: 12 animals (ser. Nos. from 1 to 12) slaughtering: three animals each when starting the experiment (0 time) and on the 1st, 5th and 15th days (positive control group) Group II: 9 amimals (ser. Nos. from 13 to 21) treatment: a single 40 mg/kg of body weight dose of flumecinol at zero time. slaughtering: three animals each on the 1st, 5th and 15th days (group treated with a single dose of flumecinol) Group III: 6 animals (ser. Nos. 22 to 27) treatment: 40 mg/kg of body weight of flumecinol for three days, at zero time and on the 1st and 2nd day slaughtering: three animals each on the 5th and 15th days (group treated with flumecinol three times) Flumecinol is available as a micropellet containing 19.02% of active ingredient. From this and a 1% starch hydrolysate a suspension is prepared, containing 40 mg of flumecinol per 1 ml (dose used for one kg of body weight). The active compound was administered 8 o'clock in the morning, without previous fasting, through a stomach tube, in order to ensure exact conditions for the experiments. The animals were killed and samples were taken from 8 to 11 o'clock in the morning, whereupon the samples were transported into the analytical laboratory within one hour, under cooling.
Quinoxaline-2-carboxylic acid (a metabolite of Carbadox) was determined in the chop, liver and kidney tissues of three animals from each group. Each muscle and liver sample was subjected to organoleptic examination also (boiling test).
The quantity of quinoxaline-2-carboxylic acid was determined essentially following the method described in the USDA Chemistry Laboratory Guidebook (5007 Determination of Carbadox):
Following the alkaline hydrolysis of the muscle, liver and kidney samples, the hydrolysates were strongly acidified and the quinoxaline-2-carboxylic acid was extracted with ethyl acetate. The pH of the ethyl acetate extract was adjusted to 6 with a citric acid buffer, whereupon the mixture was extracted with benzene. In the next step the acid was esterified with a mixture of n-propanol and sulfuric acid, to yield propyl quinoxaline-2-carboxylate. The quantity of the latter compound was determined (after purification by thin layer chromatography) by gas chromatography. This cumbersome test procedure was always performed together with a […] control sample to which a known amount (0.2 μg-1.0 μg) of quinoxaline-2-carboxylic acid (standard) was added. The percentage of the active ingredient recovered from this sample was taken into account when calculating the residual active substance amount. In this way the error of the process was eliminated.
The test results, if not otherwise indicated, are given in μg/kg.
The quantity of quinoxaline-2-carboxylic acid in the above-specified slaughtering times is shownn in Table 1. The tests were carried out on three animals and Table 1 contains the results obtained on the individual animals. The results were also statistically evaluated for the various sorts of tissues, although in this specific case this was not really necessary, since according to the valid prescriptions the products of animal origin should not contain Carbadox at all, i.e. the limit is zero. Therefore, we considered it more important to determine when the animal tissues become entirely Carbadox-free, than to observe the differences among the tissues of the various groups of animals in the time when they were killed.

[4] = test system: E.coli infections and dysentery; settings: pigs; cited from earlier work

| quinoxaline-2-carboxylic acid in muscle, kidney and liver tissues ([3]; Carbadox, no flumecinol, 15th day following termination) | Structure (SMILES) | elimination rate from the animals [1] | increasing the weight gain of animals [2] | amount of residue in liver, change from initial ([3]; control group, 1st day) | level of residue in liver ([3]; control group, 15th day) | amount of the Carbadox metabolite residue in the liver vs. muscle ([3]; liver) | potency in the treatment and prophylaxis of E.coli infections and dysentery [4] | quinoxaline-2-carboxylic acid in the kidney ([3]; control group, 15th day) | presence in muscle tissue ([3]; positive control, 15 days after termination of Carbadox administration) | residual concentration, chop vs. ham ([3]; positive control, muscle tissue) |
| --- | --- | --- | --- | --- | --- | --- | --- | --- | --- | --- |
| – | COC(=O)NN=Cc1c[n+]([O-])c2ccccc2[n+]1[O-] [Carbadox, 3-(2-quinoxalinylmethylene)-carbazic acid methyl ester N,N'-dioxide, reference compound] | eliminated from the animals at a very low rate | one of the most efficious agents employed for increasing the weight gain of animals | further increased on the 1st day | a level identical with the initial concentration in the muscles | one order of magnitude higher than in the muscle tissue | very potent | – | – | – |
| significant amount | O=C(O)c1cnc2ccccc2n1 [quinoxaline-2-carboxylic acid, Quinoxaline-2-carboxylic acid] | – | – | – | – | – | – | detected in the kidney even on the 15th day | present in the muscle tissue even 15 days after the termination of Carbadox administration, in a significant amount | always higher in the chop than in the ham muscle |

Reference: patent publication US4659712A, “Fodder additive and a process for the preparation” (Richter Gedeon Vegyeszeti Gyar Rt., priority 1984, dated 1987)
